# Test results as given in patent US20230146395A1, “Substituted Pyrimidines and Uses Thereof” (Verge Analytics, Inc., priority 2020, published 2023).
# Structures can show the parent of a compound that is named as a salt.
# Target: T1, Full length human recombinant PIKFYVE (Homo sapiens, UniProt Q9Y2I7)
# T1 construct: Full length human recombinant PIKFYVE; purchased Carna Biosciences (Kobe, Japan); host or cells: baculovirus expression system
# Assay: Inhibition of PIKfyve (microfluidic electrophoresis kinase assay, PI3P/PS substrate)
# Type: biochemical
# Conditions: 12 concentrations
# Description: Full length human recombinant PIKFYVE expressed in baculovirus expression system as N-terminal GST-fusion protein (265 kDa) was obtained from Carna Biosciences (Kobe, Japan). The kinase substrate was prepared by mixing and sonicating fluorescently-labeled phosphatidylinositol 3-phosphate (PI3P) with phospho-L-serine (PS) at a 1:10 ratio in 50 mM HEPES buffer pH 7.5.
# The kinase reactions were assembled in 384-well plates (Greiner) in a total volume of […] as follows. Kinase protein was pre-diluted in an assay buffer comprising 25 mM HEPES, pH 7.5, 1 mM DTT, 2.5 mM MgCl2, and 2.5 mM MnCl2, and 0.005% Triton X-100, and dispensed into a 384-well plate (10 μL per well). Test compounds were serially pre-diluted in DMSO and added to the protein samples by acoustic dispensing (Labcyte Echo). The concentration of DMSO was equalized to 1% in all samples. All test compounds were tested at 12 concentrations. Apilimod was used as a reference compound and was tested in identical manner in each assay plate. Control samples (0%-inhibition, in the absence of inhibitor, DMSO only) and 100%-inhibition (in the absence of enzyme) were assembled in replicates of four and were used to calculate %-inhibition in the presence of compounds. The reactions were initiated by addition of 10 μL of 2×PI3P/PS substrate supplemented with ATP. The final concentration of enzyme was 2 nM, the final concentration of ATP was […], and the final concentration of PI3P/PS substrate was 1 μM (PI3P). The kinase reactions were allowed to proceed for 3 h at room temperature. Following incubation, the reactions were quenched by addition of […] of termination buffer (100 mM HEPES, pH 7.5, 0.01% Triton X-100, 20 mM EDTA). Terminated plates were analyzed on a microfluidic electrophoresis instrument (Caliper LabChip® 3000, Caliper Life Sciences/Perkin Elmer). The change in the relative fluorescence intensity of the PI(3)P substrate and PI(3,5)P product peaks was measured. The activity in each test sample was determined as the product to sum ratio (PSR): P/(S+P), where P is the peak height of the product, and S is the peak height of the substrate. Percent inhibition (Pinh) was determined using the following equation:
# Pinh=(PSR0% inh−PSRcompound)/(PSR0% inh−PSR100% inh)*100
# in which PSRcompound is the product/sum ratio in the presence of compound, PSR0% inh is the product/sum ratio in the absence of compound, and the PSR100% inh is the product/sum ratio in the absence of the enzyme.
# T1 sequence (Q9Y2I7 whole entry): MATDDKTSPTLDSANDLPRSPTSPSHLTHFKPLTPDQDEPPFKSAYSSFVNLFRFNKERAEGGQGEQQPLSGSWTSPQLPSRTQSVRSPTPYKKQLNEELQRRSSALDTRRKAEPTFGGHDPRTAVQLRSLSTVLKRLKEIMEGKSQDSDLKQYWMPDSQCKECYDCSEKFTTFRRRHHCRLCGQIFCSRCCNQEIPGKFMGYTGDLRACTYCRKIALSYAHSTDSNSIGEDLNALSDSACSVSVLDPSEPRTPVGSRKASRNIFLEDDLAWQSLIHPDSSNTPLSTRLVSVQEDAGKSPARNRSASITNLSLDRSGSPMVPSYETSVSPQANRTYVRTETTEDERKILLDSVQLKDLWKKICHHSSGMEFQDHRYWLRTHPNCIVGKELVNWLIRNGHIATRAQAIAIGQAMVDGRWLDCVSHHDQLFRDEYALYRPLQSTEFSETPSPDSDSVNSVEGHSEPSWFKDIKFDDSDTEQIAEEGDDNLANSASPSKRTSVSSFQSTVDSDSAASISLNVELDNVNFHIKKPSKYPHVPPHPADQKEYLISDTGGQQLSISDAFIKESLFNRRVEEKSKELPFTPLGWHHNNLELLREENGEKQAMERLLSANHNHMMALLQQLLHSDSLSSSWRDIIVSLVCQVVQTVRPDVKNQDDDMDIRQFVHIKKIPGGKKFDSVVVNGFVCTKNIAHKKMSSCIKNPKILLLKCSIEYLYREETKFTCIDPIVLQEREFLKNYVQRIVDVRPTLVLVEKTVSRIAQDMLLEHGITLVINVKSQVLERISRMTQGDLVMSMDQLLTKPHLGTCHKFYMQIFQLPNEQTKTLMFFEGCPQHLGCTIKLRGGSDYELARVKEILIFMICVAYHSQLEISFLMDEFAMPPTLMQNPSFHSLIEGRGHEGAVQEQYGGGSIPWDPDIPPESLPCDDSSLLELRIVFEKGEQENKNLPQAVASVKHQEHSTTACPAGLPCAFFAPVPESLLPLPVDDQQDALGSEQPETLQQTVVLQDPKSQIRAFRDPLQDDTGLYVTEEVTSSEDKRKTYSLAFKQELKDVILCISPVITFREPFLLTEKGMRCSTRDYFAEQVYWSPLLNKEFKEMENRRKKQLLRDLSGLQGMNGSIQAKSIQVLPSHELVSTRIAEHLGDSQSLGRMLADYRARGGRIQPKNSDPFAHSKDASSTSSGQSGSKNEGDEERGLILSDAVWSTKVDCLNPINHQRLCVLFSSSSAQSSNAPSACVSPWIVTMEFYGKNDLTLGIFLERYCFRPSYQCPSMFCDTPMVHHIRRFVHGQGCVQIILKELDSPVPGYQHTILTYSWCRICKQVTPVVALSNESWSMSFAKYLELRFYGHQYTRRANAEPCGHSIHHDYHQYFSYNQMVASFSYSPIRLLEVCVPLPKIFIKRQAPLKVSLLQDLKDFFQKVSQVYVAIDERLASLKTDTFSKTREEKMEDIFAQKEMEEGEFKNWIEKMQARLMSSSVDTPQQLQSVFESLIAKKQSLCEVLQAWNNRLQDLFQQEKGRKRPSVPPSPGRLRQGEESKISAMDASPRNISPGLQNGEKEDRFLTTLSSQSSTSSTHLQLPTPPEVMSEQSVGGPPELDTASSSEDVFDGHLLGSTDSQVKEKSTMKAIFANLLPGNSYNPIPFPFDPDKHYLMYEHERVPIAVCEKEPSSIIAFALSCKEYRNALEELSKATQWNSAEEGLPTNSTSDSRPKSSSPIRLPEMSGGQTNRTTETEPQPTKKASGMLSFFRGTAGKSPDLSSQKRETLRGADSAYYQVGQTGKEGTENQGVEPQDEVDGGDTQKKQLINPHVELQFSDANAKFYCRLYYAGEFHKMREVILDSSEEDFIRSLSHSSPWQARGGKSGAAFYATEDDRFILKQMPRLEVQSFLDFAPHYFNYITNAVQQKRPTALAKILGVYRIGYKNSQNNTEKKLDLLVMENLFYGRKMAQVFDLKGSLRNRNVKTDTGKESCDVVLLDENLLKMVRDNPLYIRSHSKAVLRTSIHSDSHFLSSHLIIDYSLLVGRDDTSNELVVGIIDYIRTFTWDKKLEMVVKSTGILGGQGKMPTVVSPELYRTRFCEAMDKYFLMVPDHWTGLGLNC
row,SMILES,IC50 [nM]
1,"Cn1ccc(-c2cc3nc(-n4cc(-c5cccc(Cl)c5)cn4)nc(N4CCOCC4)c3o2)n1 [Compound 192, 2-(4-(3-chlorophenyl)-1H-pyrazol-1-yl)-6-(1-methyl-1H-pyrazol-3-yl)-4-morpholinofuro[3,2-d]pyrimidine]",21.7
2,"O=C(NCC1COC1)c1cc2nc(-n3cc(-c4ccccc4)cn3)nc(N3CCOCC3)c2o1 [Compound 164, 4-morpholino-N-(oxetan-3-ylmethyl)-2-(4-phenyipyrazol-1-yl)furo[3,2-d]pyrimidine-6-carboxamide]",162
3,"Brc1cccc(-c2ccn(-c3nc(N4CCOCC4)c4oc(-c5ccccn5)cc4n3)n2)c1 [Compound 186, 2-[3-(3-bromophenyl)pyrazol-1-yl]-4-morpholino-6-(2-pyridyl)furo[3,2-d]pyrimidine]",6
4,"CN1CCC(NC(=O)c2cc3nc(-n4cc(-c5ccccc5)cn4)nc(N4CCOCC4)c3o2)CC1 [Compound 157, N-(1-methylpiperidin-4-yl)-4-morpholino-2-(4-phenyl-1H-pyrazol-1-yl)furo[3,2-d]pyrimidine-6-carboxamide]",88.8
5,"CNC(=O)c1cc2nc(Nc3cc(-c4ccccc4)[nH]n3)nc(N3CCOCC3)c2o1 [Compound 138, N-methyl-4-morpholino-2-((5-phenyl-1H-pyrazol-3-yl)amino)furo[3,2-d]pyrimidine-6-carboxamide]",33
6,CN1CCN(Cc2cc3nc(Nc4cc(-c5ccccc5)n[nH]4)nc(N4CCOCC4)c3o2)CC1 [Compound 15],71
7,"Clc1cccc(-c2ccn(-c3nc(N4CCOCC4)c4oc(-c5ccccn5)cc4n3)n2)c1 [Compound 185, 2-[3-(3-chlorophenyl)pyrazol-1-yl]-4-morpholino-6-(2-pyridyl)furo[3,2-d]pyrimidine]",10.1
8,"Cc1ccccc1-c1cc(Nc2nc(N3CCOCC3)c3oc(-c4ccncc4)cc3n2)[nH]n1 [Compound 2, 4-morpholino-N-[5-(o-tolyl)-1H-pyrazol-3-yl]-6-(4-pyridyl)furo[3,2-d]pyrimidin-2-amine, hydrogen chloride]",64.8
9,"CN(C(=O)c1cc2nc(Nc3cc(-c4ccccc4)[nH]n3)nc(N3CCOCC3)c2o1)C1CC1 [Compound 60, N-cyclopropyl-N-methyl-4-morpholino-2-[(5-phenyl-1H-pyrazol-3-yl)amino]furo[3,2-d]pyrimidine-6-carboxamide, hydrogen chloride]",70.2
10,"c1ccc(-c2ccn(-c3nc(N4CCOCC4)c4oc(-c5ncco5)cc4n3)n2)cc1 [Compound 214, 4-morpholino-6-oxazol-2-yl-2-(3-phenylpyrazol-1-yl)furo[3,2-d]pyrimidine]",44.1
11,"Cc1cccc(-c2cnn(-c3nc(N4CCOCC4)c4oc(-c5cc(C)n(CCN6C(=O)C=CC6=O)n5)cc4n3)c2)c1 [Compound 202, 1-[2-[5-methyl-3-[4-morpholino-2-[4-(m-tolyl)pyrazol-1-yl]furo[3,2-d]pyrimidin-6-yl]pyrazol-1-yl]ethyl]pyrrole-2,5-dione]",1.4
12,"c1csc(-c2cc(Nc3nc(N4CCOCC4)c4oc(-c5ccncc5)cc4n3)[nH]n2)c1 [Compound 75, 4-morpholino-6-(pyridin-4-yl)-N-(5-(thiophen-2-yl)-1H-pyrazol-3-yl)furo[3,2-d]pyrimidin-2-amine, hydrogen chloride]",1.4
13,"[2H]C([2H])([2H])c1cccc(-c2cnn(-c3nc(N4CCOCC4)c4oc(-c5ccn(C)n5)cc4n3)c2)c1 [Compound 215, 6-(1-methylpyrazol-3-yl)-4-morpholino-2-[4-[3-(trideuteriomethyl)phenyl]pyrazol-1-yl]furo[3,2-d]pyrimidine]",0.2
14,"Cc1c(C(=O)NC2CC2)oc2c(N3CCOCC3)nc(-n3ccc(-c4ccccc4)n3)nc12 [Compound 184, N-cyclopropyl-7-methyl-4-morpholino-2-(3-phenylpyrazol-1-yl)furo[3,2-d]pyrimidine-6-carboxamide]",1430
15,"CN(CC1CC1)C(=O)c1cc2nc(-n3cc(-c4ccccc4)cn3)nc(N3CCOCC3)c2o1 [Compound 66, N-(cyclopropylmethyl)-N-methyl-4-morpholino-2-(4-phenyl-1H-pyrazol-1-yl)furo[3,2-d]pyrimidine-6-carboxamide]",612
16,"CNC(=O)c1cc2nc(Nc3cc(C(C)C)n[nH]3)nc(N3CCOCC3)c2o1 [Compound 88, 2-((5-isopropyl-1H-pyrazol-3-yl)amino)-N-methyl-4-morpholinofuro[3,2-d]pyrimidine-6-carboxamide, hydrogen chloride]",7400
17,"Cc1cccc(-c2cnn(-c3nc(N4CCOCC4)c4oc(C(=O)NC5CC5)c(C(F)(F)F)c4n3)c2)c1 [Compound 147, N-cyclopropyl-4-morpholino-2-(4-(m-tolyl)-1H-pyrazol-1-yl)-7-(trifluoromethyl)furo[3,2-d]pyrimidine-6-carboxamide]",1030
18,"Cc1cccc(-c2ccn(-c3nc(N4CCOCC4)c4oc(-c5cc(C)n(CCN(C)C)n5)cc4n3)n2)c1 [Compound 178, N,N-dimethyl-2-[5-methyl-3-[4-morpholino-2-[3-(m-tolyl)pyrazol-1-yl]furo[3,2-d]pyrimidin-6-yl]pyrazol-1-yl]ethanamine]",0.9
19,"O=C(NC1COC1)c1cc2nc(-n3ccc(-c4ccccc4)n3)nc(N3CCOCC3)c2o1 [Compound 175, 4-morpholino-N-(oxetan-3-yl)-2-(3-phenylpyrazol-1-yl)furo[3,2-d]pyrimidine-6-carboxamide]",4010
20,"Cc1cc(-c2cc3nc(-n4ccc(-c5ccccc5)n4)nc(N4CCOCC4)c3o2)on1 [Compound 206, 6-(3-methylisoxazol-5-yl)-4-morpholino-2-(3-phenylpyrazol-1-yl)furo[3,2-d]pyrimidine]",7
21,"Cn1cc(-c2cc3nc(-n4ccc(-c5ccccc5)n4)nc(N4CCOCC4)c3o2)cn1 [Compound 208, 6-(1-methylpyrazol-4-yl)-4-morpholino-2-(3-phenylpyrazol-1-yl)furo[3,2-d]pyrimidine]",8.2
22,"Cc1cccc(-c2ccn(-c3nc(N4CCOCC4)c4oc(C(=O)NS(C)(=O)=O)cc4n3)n2)c1 [Compound 98, N-(methylsulfonyl)-4-morpholino-2-(3-(m-tolyl)-1H-pyrazol-1-yl)furo[3,2-d]pyrimidine-6-carboxamide]",78.7
23,"Cc1c(-c2ccncc2)oc2c(N3CCOCC3)nc(-n3ccc(-c4ccccc4)n3)nc12 [Compound 181, 7-methyl-4-morpholino-2-(3-phenylpyrazol-1-yl)-6-(4-pyridyl)furo[3,2-d]pyrimidine]",59.4
24,"c1ccc(Cc2cc(Nc3nc(N4CCOCC4)c4oc(-c5ccncc5)cc4n3)[nH]n2)cc1 [Compound 73, N-(5-benzyl-1H-pyrazol-3-yl)-4-morpholino-6-(pyridin-4-yl)furo[3,2-d]pyrimidin-2-amine, hydrogen chloride]",141
25,"NC(=O)c1cc2nc(Nc3cc(-c4ccccc4)n[nH]3)nc(N3CCOCC3)c2o1 [Compound 52, 4-morpholino-2-((3-phenyl-1H-pyrazol-5-yl)amino)furo[3,2-d]pyrimidine-6-carboxamide hydrochloride]",47
26,"CCNC(=O)c1cc2nc(-n3cc(-c4cccc(C)c4)cn3)nc(N3CC(F)(F)OC(F)(F)C3)c2o1 [Compound 134, N-ethyl-4-(2,2,6,6-tetrafluoromorpholino)-2-(4-(m-tolyl)-1H-pyrazol-1-yl)furo[3,2-d]pyrimidine-6-carboxamide]",> 20000
